According to US7556806B2, “Carbohydrate-based synthetic vaccines for HIV” (University of Maryland Biotechnology Institute, priority 2002, dated 2009):

System: MAb 2G12 binding to HIV-1IIIB gp120
Test: Competitive ELISA: inhibition of 2G12 binding to immobilized gp120 by carbohydrate antigens
Design: species or system human
Settings: for Relative Affinity, Molar basis / Relative Affinity, Valency-corrected: Table 1; for Relative Affinity, Molar basis: from IC50, relative to Man9GlcNAc2Asn = 1.0; for Relative Affinity, Valency-corrected: from IC50, relative to Man9GlcNAc2Asn = 1.0, per oligosaccharide subunit; for affinity for 2G12 binding, Man9GlcNAc compared with Man9GlcNAc2Asn: result in words
Experimental: Competitive ELISAs were performed to determine the relative inhibition potency of various carbohydrate antigens against the binding of 2G12 to gp120. Microtiter plates were coated with human cell line 293-expressed HIV-1IIIB gp120 (100 ng/ml) overnight at 4° C. After washing, non-specific binding was blocked with 5% BSA in PBS for 1 h at room temperature. The plates were then washed three times with 0.1% Tween-20/PBS. Serial dilutions (1:2) of various carbohydrate antigens were mixed with an equal volume of MAb 2G12 (fixed final concentration of 5 ng/ml) and added to the plates. The plates were incubated for 1 h at 37° C. and washed with washing buffer. To the plates was added a 100-μl solution of 1:3000 diluted horseradish peroxidase-conjugated goat anti-human IgG in 0.5% BSA/PBS. After incubation for 1 h at 37° C., the plates were washed again and a 100-μl solution of 3,3′,5,5′-tetramethyl benzidine (TMB) was added. Color was allowed to develop for 5 min, and the color reaction was quenched through adding a 100-μl solution of 0.5 M H2SO4 to each well. The optical density was then measured at 450 nm.
The binding affinity of the high-mannose oligosaccharides was examined by competitive inhibition of 2G12 binding to immobilized gp120, as shown in FIG. 14.
The synthetic Man9-clusters were examined for competitive inhibition of 2G12 binding to immobilized gp120 (FIG. 16).

| Compound | Relative Affinity, Molar basis | Relative Affinity, Valency-corrected | affinity for 2G12 binding, Man9GlcNAc compared with Man9GlcNAc2Asn | fold more effective in inhibition of 2G12 binding than Man5GlcNAc (on a molar basis, versus Man5GlcNAc) | fold more effective in inhibition of 2G12 binding than Man6GlcNAc (on a molar basis, versus Man6GlcNAc) |
| --- | --- | --- | --- | --- | --- |
| CC(=O)N[C@H]1C(O)O[C@H](CO)[C@@H](O[C@@H]2O[C@H](CO[C@H]3O[C@H](CO[C@H]4O[C@H](CO)[C@@H](O)[C@H](O)[C@@H]4O)[C@@H](O)[C@H](O[C@H]4O[C@H](CO)[C@@H](O)[C@H](O)[C@@H]4O)[C@@H]3O)[C@@H](O)[C@H](O[C@H]3O[C@H](CO)[C@@H](O)[C@H](O)[C@@H]3O)[C@@H]2O)[C@@H]1O (stereo partly drawn) [Man5GlcNAc] | 0.004 | 0.004 | – | – | – |
| CC(=O)N[C@@H]1[C@@H](O)[C@H](O[C@@H]2O[C@H](CO)[C@@H](O[C@@H]3O[C@H](CO[C@H]4O[C@H](CO[C@H]5O[C@H](CO)[C@@H](O)[C@H](O)[C@@H]5O[C@H]5O[C@H](CO)[C@@H](O)[C@H](O)[C@@H]5O)[C@@H](O)[C@H](O[C@H]5O[C@H](CO)[C@@H](O)[C@H](O)[C@@H]5O[C@H]5O[C@H](CO)[C@@H](O)[C@H](O)[C@@H]5O)[C@@H]4O)[C@@H](O)[C@H](O[C@H]4O[C@H](CO)[C@@H](O)[C@H](O)[C@@H]4O[C@H]4O[C@H](CO)[C@@H](O)[C@H](O)[C@@H]4O[C@H]4O[C@H](CO)[C@@H](O)[C@H](O)[C@@H]4O)[C@@H]3O)[C@H](O)[C@H]2NC(C)=O)[C@@H](CO)O[C@H]1NC(=O)C[C@H](N)C(=O)O [Man9GlcNAc2Asn] | 1.0 | 1.0 | essentially the same affinity | – | – |
| CC(=O)N[C@H]1C(O)O[C@H](CO)[C@@H](O[C@@H]2O[C@H](CO[C@H]3O[C@H](CO[C@H]4O[C@H](CO)[C@@H](O)[C@H](O)[C@@H]4O[C@H]4O[C@H](CO)[C@@H](O)[C@H](O)[C@@H]4O)[C@@H](O)[C@H](O[C@H]4O[C@H](CO)[C@@H](O)[C@H](O)[C@@H]4O[C@H]4O[C@H](CO)[C@@H](O)[C@H](O)[C@@H]4O)[C@@H]3O)[C@@H](O)[C@H](O[C@H]3O[C@H](CO)[C@@H](O)[C@H](O)[C@@H]3O[C@H]3O[C@H](CO)[C@@H](O)[C@H](O)[C@@H]3O[C@H]3O[C@H](CO)[C@@H](O)[C@H](O)[C@@H]3O)[C@@H]2O)[C@@H]1O (stereo partly drawn) [Man9GlcNAc] | 0.84 | 0.84 | essentially the same affinity | 244 fold | 85 fold |
| Man6GlcNAc | 0.012 | 0.012 | – | – | – |
